Measured values: patent publication US7098243B2, “Bicyclic carbohydrates as antiviral bioactives for the treatment of infections caused by the alphaherpesvirinae HSV-1 and HSV-2” (Kemin Pharma Europe B.V.B.A., priority 2003, dated 2006)
≈ marks a conversion by molar mass, not a printed value. Entries after “also recorded” stand apart in the source; their conditions may differ. Read-outs that look alike come from different tables or passages of the source.

Legend:
[1] = test system: human cytomegalo virus (HCMV); test: Inhibition of viral-induced cytopathicity, HCMV in HFF cells; type: cell-based
[2] = test system: herpes simplex virus type 1 (HSV-1); test: Cytopathic effect inhibition assay (CPE) against HSV-1 in HFF cells; conditions: for EC50: Human alphaherpesvirus 1, HFF
[3] = test system: herpes simplex virus type 2 (HSV-2); test: Cytopathic effect inhibition assay (CPE) against HSV-2 in HFF cells; conditions: for EC50: Human alphaherpesvirus 2, HFF
[4] = test system: varicella zoster virus (VZV); test: Inhibition of viral-induced cytopathicity, VZV in HFF cells; type: cell-based
[5] = test system: West Nile virus; test: Inhibition of viral-induced cytopathicity, West Nile virus in Vero cells; type: cell-based
[6] = test system: HFF cells; test: Toxicity (reduction of cell viability) in the HSV, HCMV and VZV screenings; type: cell-based; conditions: reduction of cell viability by 50%
[7] = test system: Staphylococcus aureus ATCC29213; test: Antibacterial microdilution screening (Bioscreen C), S. aureus; type: cell-based; conditions: 16 hours at 35° C., Mueller-Hinton broth
[8] = test system: E. coli ATCC 25922; test: Antibacterial microdilution screening (Bioscreen C), E. coli; type: cell-based; conditions: 16 hours at 35° C., Mueller-Hinton broth
[9] = test system: Clostridium perfringens ATCC 13124; type: cell-based; conditions: 16 hours at 35° C., Mueller-Hinton broth
[10] = test system: Pseudomonas aeruginosa ATCC 27853; test: Antibacterial microdilution screening (Bioscreen C), P. aeruginosa; type: cell-based; conditions: 16 hours at 35° C., Mueller-Hinton broth
[11] = test system: Candida albicans ATCC 24433; test: Antifungal microdilution screening (Bioscreen C), C. albicans; type: cell-based; conditions: 24 hours at 35° C., RPMI 1640
[12] = test system: Cryptococcus neoformans ATCC 90112; test: Antifungal microdilution screening (Bioscreen C), C. neoformans; type: cell-based; conditions: 48 hours at 35° C., RPMI 1640
[13] = test system: Trichophyton mentagrophytes ATCC 9533; test: Antifungal microdilution screening (Bioscreen C), T. mentagrophytes; type: cell-based; conditions: 5 days at 30° C., RPMI 1640
[14] = test system: Aspergillus fumigatus ATCC 2895; test: Antifungal microdilution screening (Bioscreen C), A. fumigatus; type: cell-based; conditions: 3 days at 30° C., RPMI 1640
[15] = test system: Vero cells; conditions: West Nile screening, reduction of cell viability by 50%
[16] = viral-induced cytopathicity in HFF cell cultures
[17] = compounds related to Compound A1 (Table 4)

Nc1nc(O)c2ncn(COC(CO)CO)c2n1 [GCV, ganciclovir, reference compound]
EC50 ([1]; Human betaherpesvirus 5, HFF, reference product, read-out: GCV EC50): 0.8 µg/mL (≈ 3.13 µM)

CCO[C@@H]1[C@@H](OCC)[C@H](Cc2ccccc2)O[C@@H]2CO[C@@H](c3ccccc3)O[C@@H]12
EC50 ([2]; read-out: EC50 HSV-1): > 80 µg/mL
EC50 ([3]; read-out: EC50 HSV-2): > 80 µg/mL

CCO[C@@H]1[C@@H](OCC)[C@H](Cc2ccccc2)O[C@@H]2CO[C@@H](c3ccc(Cl)cc3)O[C@@H]12 [Compound A1]
Compound A1 S.I. (CC50/EC50) [1]: <3.5
Compound A1 EC50 [1, 16]: > 20 µg/mL
Compound A1 S.I. (CC50/EC50) [4]: 0
Compound A1 EC50 [4, 16]: > 100 µg/mL
Compound A1 S.I. (CC50/EC50) ([5]; West Nile): 0
Compound A1 EC50 ([5]; West Nile virus, Vero cells): > 50 µg/mL
Compound A1 CC50 ([6]; HCMV screening): 71.0 µg/mL
Compound A1 CC50 ([6]; HSV-1 screening): >100 µg/mL
Compound A1 CC50 ([6]; HSV-2 screening): >100 µg/mL
Compound A1 CC50 ([6]; VZV screening): >100 µg/mL
MIC S. aureus ATCC 29213 [7]: >25 µg/mL
MIC E. coli ATCC 25922 [8]: >25 µg/mL
MIC C. perfringens ATCC 13124 [9]: >25 µg/mL
MIC P. aeruginosa ATCC 27853 [10]: >25 µg/mL
MIC C. albicans ATCC 24433 [11]: >25 µg/mL
MIC C. neoformans ATCC 90112 [12]: >25 µg/mL
MIC T. mentagrophytes ATCC 9533 [13]: >25 µg/mL
MIC A. fumigatus ATCC 2895 [14]: >25 µg/mL
Compound A1 CC50 [15]: 50 µg/mL
Compound A1 S.I. (CC50/EC50) ([2]; HSV-1): >33.3
Compound A1 EC50 ([2]; HSV-1, viral-induced cytopathicity in HFF cell cultures): 3 µg/mL
Activity against HSV-1 (in words) ([2]; anti-viral screening): strong activity
Compound A1 S.I. (CC50/EC50) ([3]; HSV-2): >3333
Compound A1 EC50 ([3]; HSV-2, viral-induced cytopathicity in HFF cell cultures): < 0.03 µg/mL
Activity against HSV-2 (in words) ([3]; anti-viral screening): strong activity; also recorded: superior effect against HSV-2

C=CCO[C@@H]1[C@@H](OCC=C)[C@H](Cc2ccccc2)O[C@@H]2CO[C@@H](c3ccc(Cl)cc3)O[C@@H]12
EC50 HSV-1 [2, 17]: >16 µg/mL
EC50 HSV-2 [3, 17]: >16 µg/mL

Nc1nc2c(ncn2COCCO)c(=O)[nH]1 [ACV, Acyclovir, reference compound]
EC50 ([2]; read-out: ACV EC50): 1.2 µg/mL (≈ 5.33 µM)
EC50 ([3]; read-out: ACV EC50): 0.4 µg/mL (≈ 1.78 µM)

CO[C@@H]1[C@@H](OC)[C@H](Cc2ccccc2)O[C@@H]2CO[C@@H](c3ccc(Cl)cc3)O[C@@H]12
EC50 ([2]; read-out: EC50 HSV-1): > 16 µg/mL
EC50 ([3]; read-out: EC50 HSV-2): > 16 µg/mL
